“Also recorded” adds a separate entry of the source. Read-outs that look alike come from different tables or passages of the source. Marks after values point to notes of the source that are not given here.
Columns and labels:
[1] = Drug-drug interaction with primaquine coadministration (stepwise and full covariate approach, bootstrap n = 1000); type: in vivo, human; details: for Effect of primaquine coadministration on pharmacokinetic properties: stepwise covariate approach
Excerpt: All continuous and categorical covariates (aspartate aminotransferase, alanine aminotransferase, alkaline phosphatase, haemoglobin, blood urea nitrogen, serum creatinine level, albumin level, primaquine coadministration and age) were investigated by using a stepwise forward inclusion (P‐value <0.05), followed by stepwise backward elimination (P‐value >0.001). A strict P‐value of 0.001 for the backward elimination was used as there were relatively few subjects in the present study 34. Gender was not evaluated as a covariate owing to the substantial imbalance between male and female subjects (five males out of 16 subjects). The effect of primaquine coadministration was also modelled separately, using a full covariate approach in which the primaquine coadministration was implemented as a categorical covariate on all pharmacokinetic parameters (except relative bioavailability owing to identifiability issues) in the final pharmacokinetic model. The full covariate models were bootstrapped (n = 1000) to determine a potentially influential drug–drug interaction on primary and secondary pharmacokinetic parameters. A primaquine‐dependent change of more than ±25% in parameter estimates was deemed a clinically relevant drug–drug interaction.

[2] = cited from earlier work
[3] = Population pharmacokinetic modelling of DHA and piperaquine plasma concentrations in healthy Thai volunteers; type: in vivo, human; details: for half-life / AUC / Cmax / Tmax: both sexes, plasma, oral; for AUC: read-out: AUC (time zero to infinity), median (range); for Cmax: read-out: CMAX, median (range); for Tmax: read-out: TMAX, median (range); for MTT (mean transit time), population estimate (%RSE): oral DHA-piperaquine three tablets
Description: It was a descriptive pharmacokinetic-pharmacodynamic study and no formal sample size calculations were performed. […] All volunteers received primaquine alone in the first phase, followed by a washout period of 1 week. In the second and third phases, volunteers received DHA-piperaquine alone and DHA-piperaquine coadministered with primaquine at random, with an intervening washout period of 8 weeks. Study drug regimens comprised two tablets of primaquine (each tablet containing 15 mg primaquine base) and three tablets of co-formulated DHA-piperaquine (each tablet containing 40 mg DHA and 320 mg piperaquine phosphate). Study drugs were administered in the morning, 30 min after a light meal (~200 kcal and 8 g fat) with a glass of water. Venous blood samples (2 ml) were collected into fluoride-oxalate blood collection tubes. Blood samples were taken at 0 (predose), 0.25, 0.5, 1, 1.5, 2, 3, 4, 6, 8, 10, 12, and 24 h postdose. Additional blood samples were taken at days 3, 4, 7, 11, 15, 22, and 36 for piperaquine drug measurements. The exact drug administration and sampling times were recorded. Blood and plasma were separated by centrifugation at 2000 × g at 4°C for 7 min. All plasma samples were stored below -70°C and transferred on dry ice to the Department of Clinical Pharmacology, Mahidol-Oxford Tropical Medicine Research Unit (MORU), Bangkok, Thailand, for drug quantification. Plasma concentrations of DHA and piperaquine were measured using solid-phase extraction followed by liquid chromatography coupled with tandem mass spectrometry 25, 26. Quality control samples at low, middle and high concentration (5.87, 117 and 1880 ng ml^-1 for DHA and 4.50, 20.0 and 400 ng ml^-1 for piperaquine) were analysed in triplicate within each batch of study samples, to ensure the accuracy and precision of the drug assay. […] The lower limit of quantification (LLOQ) was set to be 2.00 ng ml^-1 for DHA and 1.50 ng ml^-1 for piperaquine. The laboratory is a participant in the QA/QC proficiency testing programme supported by the Worldwide Antimalarial Resistance Network 27. DHA and piperaquine plasma concentrations were transformed into their natural logarithms and analysed using a nonlinear mixed-effects modelling approach in NONMEM version 7.3 (Icon Development Solution, Ellicott City, MD, USA). […] version 2.9.0 28, Perl-speaks-NONMEM version 3.5.3 (PsN) 29 and Xpose version 4.0 30 were used for automation, model evaluation and diagnostics during the model-building process. The first-order conditional estimation method with interactions (continuous data only) or the Laplacian estimation method (a combination of continuous and categorical data) was used throughout modelling and simulation. […] Therefore, two LLOQ methods were evaluated during the model-building process 31. Data below the LLOQ were omitted (M1 method) or modelled as categorical data (M3 method). Model fitness was evaluated primarily by the objective function value (OFV; calculated by NONMEM as proportional to -2 × log-likelihood of the data). […] One-, two-, three- and four-compartment structural disposition models were evaluated for DHA and piperaquine. The best performing model was used to evaluate the absorption characteristics of DHA and piperaquine (i.e. first-order absorption with and without lag time, zero-order absorption and transit absorption). The transit compartment absorption model is a more mechanistic description of delayed absorption compared with the dichotomous properties of a lag-time model 32.

QT interval = assay: Population pharmacokinetic-pharmacodynamic model of piperaquine concentration vs double-delta-corrected QTc prolongation (12-lead ECG); type: in vivo, human
Description: Subjects were rested for at least 20 min before ECG measurements were taken (ECG‐1250 K, Nihon Kohden, Japan). 12‐lead ECG measurements were performed twice before drug administration, and at 1, 2, 4, 8, 12, and 24 h after each study drug administration. The ECGs were recorded at 10 mm mV^–1 sensitivity, and 25 mm s^–1 paper speed. Automatic readouts of all ECG measurements were collected but all ECGs with a reported QT interval greater than 450 ms were manually adjudicated by a research physician (unblinded) and a cardiologist (blinded). Other abnormal ECG waveforms were read by a cardiologist. Observed QT intervals were later corrected for heart rate by both the Fridericia and Bazett formulae 24. Data‐driven individual and study population correction factors were also evaluated (see section on methodology, below).
The observed QT interval must be corrected for heart rate in order to compare QT intervals between and within patients. Observed QT measurements were corrected by the traditionally used Bazett and Fridericia formulae (i.e. fixing the exponent (α) to 1/2 and 1/3, respectively, in Equation (5)). Furthermore, all observed individual QT and RR intervals from the placebo arm (i.e. primaquine‐alone arm) in a subject were used to determine the optimal individual QT correction factor (α) for each subject using ordinary least‐squares fit (Equation (5)). The calculated individual correction factor for a particular subject was then applied to all measured QT intervals for that subject, in order to generate corrected QT intervals (QTc) 24.
The appropriateness of the applied correction methods was evaluated by individual linear regression analysis of QTc vs. RR. The relationship between piperaquine drug concentrations and QRS, JT (i.e. QT – QRS) and QT intervals was evaluated with ordinary linear regression to assess the most appropriate modelling approach.
Double‐delta corrections are commonly performed to adjust for the observed circadian rhythm of ECG measurements 37. Thus, double‐delta‐corrected QTc prolongations (ΔΔQTc) were calculated by subtracting the placebo arm ΔQTc from the treatment arm ΔQTc, as in Equation (7). The primaquine‐alone arm was used as the placebo arm.
Calculated ΔΔQTc‐prolongations were used as the pharmacodynamic endpoint. Individually predicted piperaquine concentrations (CP) were obtained from imputing individual pharmacokinetic parameter estimates directly into the pharmacodynamic model. The relationship between drug exposure and QT prolongation was evaluated initially by a linear direct‐response pharmacodynamic model, as in Equation (8).
(8) ΔΔQTc=θ1+η1+θ2×CPt+εi where θ1 represents the typical baseline ΔΔQTc prolongation, η1 is the normally distributed between‐subject variability, θ2 is the slope of the exposure–response relationship and εi is the normally distributed residual error. Different exposure–response relationships (i.e. power model and EMAX model) were also investigated during the model development process. Hysteresis was investigated to account for a possible delayed exposure–response relationship (i.e. turn‐over and link models).
Age, gender, electrolyte levels (i.e. potassium and sodium) at admission and concomitant primaquine administration were evaluated as linear covariates on the piperaquine‐related ΔΔQTc prolongation, using a stepwise addition–deletion approach (as described above). Model evaluation and diagnostics were performed in the same manner as for the pharmacokinetic modelling approach.

[4] = human, with primaquine, Bayesian post hoc estimates
[5] = human, with primaquine, Bayesian post hoc estimates, read-out: t1/2 (terminal half-life), median (range) (converted)
[6] = human, without primaquine, Bayesian post hoc estimates
[7] = human, without primaquine, Bayesian post hoc estimates, read-out: t1/2 (terminal half-life), median (range) (converted)
[8] = healthy volunteers, typical individual 64 kg
[9] = healthy volunteers, typical individual 64 kg, two-compartment model
[10] = full covariate approach, 95% CI included zero effect
[11] = F fixed to 100% for the population
[12] = healthy volunteers, typical individual 64 kg, three-compartment model

C[C@H]1[C@@H](O)O[C@@H]2O[C@@]3(C)CC[C@H]4[C@H](C)CC[C@@H]1[C@@]24OO3 [dihydroartemisinin]
Effect of primaquine coadministration on pharmacokinetic properties ([1]; listed as DHA): did not affect the pharmacokinetic properties; also recorded: did not have a significant impact | Elimination half-life [2]: 1 to 2 h | Terminal half-life in previous reports [2]: 8.7 to 150 min | half-life ([3]; human, three-compartment model, not carried forward, read-out: Median terminal half-life from the three-compartment model (converted)): 187 min | AUC [3, 4]: 798 ng·h/mL | Cmax [3, 4]: 357 ng/mL | Tmax [3, 4]: 1.27 h | half-life [3, 5]: 132 min | AUC [3, 6]: 767 ng·h/mL | Cmax [3, 6]: 361 ng/mL | Tmax [3, 6]: 1.3 h | half-life [3, 7]: 132 min | MTT (mean transit time), population estimate (%RSE) [3, 8]: 0.567 (11.4%) h | CL/F (oral clearance), population estimate (%RSE) [3, 8]: 148 (10.6%) l h^-1 | VC/F (apparent central volume of distribution), population estimate (%RSE) [3, 8]: 214 (16.9%) l | ka (absorption rate constant from last transit compartment to central compartment), population estimate (%RSE) [3, 8]: 2.89 (37.1%) h^-1 | QP/F (inter-compartment clearance), population estimate (%RSE) [3, 9]: 28.5 (26.0%) l h^-1 | VP/F (apparent peripheral volume of distribution), population estimate (%RSE) [3, 9]: 65.9 (19.1%) l | Between-occasion variability of ka, %CV (%RSE) ([3]; human, in vivo): 89.0% (23.7%) ^* | Between-occasion variability of ka, %CV (%RSE) ([3]; human, in vivo, listed as DHA): 89.0%

Clc1ccc2c(N3CCN(CCCN4CCN(c5ccnc6cc(Cl)ccc56)CC4)CC3)ccnc2c1 [piperaquine]
Median decrease in central volume of distribution during concomitant primaquine [1, 10]: 37.3% (95% CI −67.6%, 33.7%) | Median increase in mean transit absorption time during concomitant primaquine [1, 10]: 26.8% (95% CI −21.2%, 62.5%) | Effect of primaquine coadministration on pharmacokinetic properties [1]: did not affect the pharmacokinetic properties; also recorded: did not have a significant impact | SLOPE (slope of the relationship between piperaquine concentration and ΔΔQTc prolongation), population estimate (%RSE) (QT interval; linear direct-response model, healthy volunteers): 0.0417 (12.5%) ms (ng ml^-1)^-1 | Relationship between piperaquine drug concentrations and ΔQRS (QT interval; ordinary linear regression, P = 0.520): no significant relationship | Population mean increase in ΔΔQTc (QT interval) per 100 ng ml^-1 increase in piperaquine plasma concentration (QT interval; per 100 ng ml^-1, individually corrected QT, healthy volunteers): 4.17 ms | Terminal elimination half-life ([2]; introduction): 20 to 30 days | Increase in piperaquine trough concentrations at week 36 compared with week 4 ([2]; repeated bimonthly treatment doses): 267% (range 146–381%) | Increase in piperaquine trough concentrations at week 36 compared with week 4 ([2]; repeated monthly treatment doses): 336% (range 271–402%) | Median maximum piperaquine concentration ([2]; standard 3-day regimen of 50 mg kg^-1, pregnant and nonpregnant women with uncomplicated P. falciparum malaria): 244 ng/mL | Between-occasion variability of F (relative bioavailability), %CV (%RSE) [3, 11]: 19.1% (13.3%) ^* | Between-subject variability of F (relative bioavailability), %CV (%RSE) [3, 11]: 17.9% (34.0%) | Cmax [3, 4]: 300 ng/mL | Tmax [3, 4]: 3.98 h | half-life [3, 5]: 31800 min | Cmax [3, 6]: 332 ng/mL | Tmax [3, 6]: 3.76 h | half-life [3, 7]: 31800 min | MTT (mean transit time), population estimate (%RSE) [3, 8]: 3.13 (9.42%) h | CL/F (oral clearance), population estimate (%RSE) [3, 8]: 27.4 (5.50%) l h^-1 | VC/F (apparent central volume of distribution), population estimate (%RSE) [3, 8]: 751 (23.5%) l | QP1/F (inter-compartment clearance), population estimate (%RSE) [3, 12]: 206 (9.56%) l h^-1 | QP2/F (inter-compartment clearance), population estimate (%RSE) [3, 12]: 71.5 (9.01%) l h^-1 | VP1/F (apparent peripheral volume of distribution), population estimate (%RSE) [3, 12]: 1900 (8.23%) l | Between-occasion variability of MTT, %CV (%RSE) ([3]; human, in vivo): 32.2% (13.4%) ^* | Between-subject variability of CL/F, %CV (%RSE) ([3]; human, in vivo): 10.9% (37.2%) | Between-subject variability of QP2/F, %CV (%RSE) ([3]; human, in vivo): 24.1% (36.3%) | Between-subject variability of VC/F, %CV (%RSE) ([3]; human, in vivo): 42.4% (40.9%) | Variability in the absorption characteristics ([3]; human, in vivo): below 35% | Day 7 conc., median (range) ([3]; with primaquine, Bayesian post hoc estimates): 16.7 (13.8–28.9) ng ml^-1 | Day 7 conc., median (range) ([3]; without primaquine, Bayesian post hoc estimates): 18.3 (10.5–34.9) ng ml^-1

COc1cc(NC(C)CCCN)c2ncccc2c1 (centres unmarked) [primaquine]
Relationship between ΔQTc and primaquine concentrations (QT interval; primaquine-alone arm, 30 mg base, ordinary linear regression): no correlation; also recorded: no impact on ventricular repolarization | Effect of primaquine on the piperaquine exposure-QTc prolongation relationship (QT interval; stepwise covariate approach): did not affect the relationship

Source: PMC5698590 (British Journal of Clinical Pharmacology, 2017)
